Data set [1] has as its target T1, catecholamine-O-methyltransferase (COMT), human liver enzyme (Homo sapiens, UniProt P21964).
T1 construct: prepared from human liver; from tissue; host or cells: human liver, crude enzyme
T1 sequence (P21964 1-221 isoform P21964-2): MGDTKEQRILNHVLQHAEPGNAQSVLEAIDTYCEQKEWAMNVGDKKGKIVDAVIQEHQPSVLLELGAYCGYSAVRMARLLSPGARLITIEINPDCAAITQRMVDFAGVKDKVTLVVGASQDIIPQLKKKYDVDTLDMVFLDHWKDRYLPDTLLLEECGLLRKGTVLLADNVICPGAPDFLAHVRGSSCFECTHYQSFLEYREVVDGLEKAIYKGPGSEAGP
The experiment in a line: COMT inhibitory activity (O-methylation of 1,2-dihydroxybenzene with S-adenosyl-L-[methyl-3H]methionine, crude human liver enzyme). The class given is biochemical. The note with it: COMT inhibition; crude enzyme from human liver (8.3 μg protein); pH 8.0; 37° C., 30 minutes; 100 μM 1,2-dihydroxybenzene. On the procedure:
The assay mixture (120 μl) in a mini scintillation vial contained 68 mM K-PO4 buffer (pH 8.0), 10 mM MgCl2, 2.2 mM dithiothreitol, 7.8 U/ml adenosine deaminase, 5 mM EGTA, 100 μM 1,2-dihydroxybenzene, 183 μM S-adenosyl-L-[methyl-^3 H] […] Ci/mol, Amersham) and human liver enzyme. In the standard assay, 5 μl of inhibitor was added to the incubation mixture and the reaction was started with the supplementation of crude enzyme (8.3 μg protein) prepared from human liver. After incubation at 37° C. for 30 minutes, the reaction was stopped by immersion of the vials in ice water. 100 μl of 1M guaiacol HCl was added and the samples were extracted with 2 ml of a scintillation cocktail of hexane/toluene (4:1). The radioactivity of O^3 H-methylated products were measured by a liquid scintillation counter (LSC1100, Aloka).

The nature of another data set: Solubility. The class given is physicochemical.
The next data set can be described thus: Acute toxicity. The note with it: in vivo.

Turning to `CCCOC(=O)c1cc(O)c(O)c(O)c1` [Propyl gallate], in data set [1], the IC50 – broadly, the concentration that inhibits the measured activity by half – came out at 455 nM.

With `O=c1cccccc1O` [Tropolone], half-maximal inhibition in data set [1] (IC50) was put at 963000 nM.

In the case of `COc1c(O)cc2cc(C(=O)O)cc(O)c(=O)c2c1O` [8-O-methylpurpurogallincarboxylic acid], the Solubility entry is given as “Soluble” in the data set “Solubility” (in Dimethylsulfoxide (DMSO)), “Slightly soluble” in the data set “Solubility” (in H2 O) and “Soluble” in “Solubility” (in Methanol). The IC50 in data set [1] is 2230 nM. Also, in “Acute toxicity”, the Acute toxicity entry is reported as “not observed”.

For the origin of these results see patent US5814512A, “Microorganism having all the identifying characteristics of absida ferm BP-4599 for producing purpurogallin derivatives” (Hoffmann-La Roche Inc., priority 1994, dated 1998).
